Earlier results in patent publication US12059317B2, “Multi-phase oral care compositions” (The Procter & Gamble Company, priority 2019, dated 2024).
Read-outs that look alike come from different tables or passages of the source.

Settings: for Solubility in Water (number of parts by weight per 100 parts by weight of water): hydrophilic bleaching agent particle of the composition, PVP complex value estimated from supplier data sheet on PVP K-30

- Solubility in water (footnote values from supplier data sheets / Wikipedia): 80 parts per 100 parts of water
- Solubility in Water (number of parts by weight per 100 parts by weight of water) (listed as urea peroxide): 80 parts by weight per 100 parts
SMILES: NC(N)=O.OO [Urea Peroxide, Urea Hydrogen Peroxide Adduct]
- Solubility in water (at 20 C, per Safety Data Sheet from supplier): 800 grams per liter
- Solubility in Water (number of parts by weight per 100 parts by weight of water): 80 parts by weight per 100 parts by weight of water
